This is an account of results in US20060252683A1, “Preparation of a peptide compound (SYRAPRO-2000) and its use for the activation of protein phosphatase-2A1 enzyme” (priority 2005, published 2006).

In assay [1] the target is T1, protein phosphatase-2A1 (Homo sapiens, UniProt P67775). Put plainly: Assay of purified protein phosphatase-2A1 in vitro with 32P-labeled phosphorylase a as substrate. It is filed as biochemical. The arrangement: Protein phosphatase-2A1 purified from CD^4+ T cells as described in materials and method; endogenous in cells; host or cells: Jurkat cells; enzyme purified by DEAE Sepharose, Sephacryl S-300 HR and poly-L-lysine Agarose. The note with it: highly purified enzyme from Jurkat cells. The procedure:
Protein phosphatase-2A1 purified from CD^4+ T cells as described in materials and method was assayed in the presence of various concentrations of SYRAPRO-2000. 100 percent protein phosphatase-2A1 activity is equivalent to 0.005 unit. Similar result were obtained in 3 independent experiments.
The effect of synthesized SYRAPRO-2000 on purified protein phosphatase-2A1 can be determined in vitro. Protein phosphatase-2A1 can be assayed using ^32P-labeled phosphorylase a as substrate in the presence of various concentrations of SYRAPRO-2000. Protein phosphatase-2A1 is activated in the presence of SYRAPRO-2000.
Protein phosphatase-1 was assayed as described in (Cohen 1988). Protein phosphatase-2B was assayed as described in (Tung 1986). Protein phosphatase-2C was assayed as described in (Tung 1986) except Ca^2+ and calmodulin were omitted. The assay of protein phosphatases-2A1 consisted of 0.02 ml of enzyme solution in 50 mM Imidazole-Cl pH 7.2, 0.2 mM EGTA, 0.1% (v/v) 2-mercaptoethanol and 1 mg/ml bovine serum albumin (Assay Buffer), 0.01 ml of inhibitor-2 at 600 nM in Assay Buffer, 0.01 ml of protamine at 60 μg/ml in Assay Buffer or 0.01 ml of SYRAPRO-2000 at different concentrations in Assay Buffer or 0.01 ml of Assay Buffer alone, 0.02 ml of ^32P-labeled phosphorylase a at 3 mg/ml in Assay Buffer containing 15 mM caffeine. The assay components were preincubated for 10 minutes prior to initiating the reaction with ^32P-labeled phosphorylase a. One unit of protein phosphatase activity is that amount of enzyme which catalyzes the release of 1 nmol of phosphate from ^32P-labeled substrate per min at 30° C.
Jurkat cells, a human transformed CD^4+ T cell line, were grown in grown in RPMI 1680 supplemented with 5% (v/v) fetal bovine serum at 37° C. in 95% air/5% CO2 in a humidified incubator. 2.4 liters of cells were collected by centrifugation at 4200 rpm in a low speed centrifuge for 10 minutes. The cells were homogenized in 80 ml of 50 mM Imidazole-Cl pH 7.2, 2 mM EGTA, 2 mM EDTA, 0.1% (v/v) 2-mercaptoethanol, 0.2 mM PMSF, 1 mM benzamidine, 4 μg/ml aprotinin, 4 μg/ml leupeptin, 4 μg/ml pepstatin, 0.1 mM TLCK, 0.1 mM TPCK, 1 mM sodium orthovanadate and 10% (v/v) glycerol by 40 strokes in a glass hand held homogenizer. The homogenate was centrifuged at 29000 rpm in a high speed centrifuge for 30 minutes. The supernatant (i.e the extract) was collected and loaded onto a DEAE Sepharose column (1.5×6 cm) equilibrated in 25 mM Imidazole-Cl pH 7.2, 0.2 mM EGTA, 0.1% (v/v) 2-mercaptoethanol, 0.1 mM PMSF, 1 mM benzamidine and 10% (v/v) glycerol (Buffer A). The column was washed with 50 ml of Buffer and then eluted with a 200 ml linear gradient of Buffer A to Buffer A plus 0.4 M NaCl. The eluted fractions were then assayed for phosphorylase phosphatase activity in the presence of 100 nM inhibitor-2 and 10 μg/ml of protamine. Two major peaks of phosphorylase phosphatase were observed. The first and second peak represent protein phosphatase-2A0 and protein phosphatase-2A1 respectively. […] The major activity eluting as a species of apparent molecular mass 300 kDa was collected, diluted four fold in Buffer A and loaded onto a poly-L-lysine Agarose Column (1.5×4 cm) equilibrated in Buffer A. The column was washed with 50 ml of Buffer A and then eluted with a 200 ml linear gradient of Buffer A to Buffer A plus 0.5 M NaCl. The active fractions eluting at ˜0.30 M NaCl salt concentration was pooled, concentrated by vacuum dialysis and stored at ^−20° C. in 50 mM Imidazole-Cl pH 7.2, 0.2 mM EGTA in the presence of 50% (v/v) glycerol. The highly purified enzyme consisted of the characteristic subunits of protein phosphatase-2A1, namely the A, B and C subunits. […] It is difficult to determine the activity of protein phosphatase-2A1 in CD^4+ T cell extract. However, assuming that it represented about 66 percent of total type 2A protein phosphatase activity in CD^4+ T cell extract, the specific activity of the enzyme in extract was estimated to be 0.3 unit/mg. […]
Target sequence in this assay (P67775 whole entry): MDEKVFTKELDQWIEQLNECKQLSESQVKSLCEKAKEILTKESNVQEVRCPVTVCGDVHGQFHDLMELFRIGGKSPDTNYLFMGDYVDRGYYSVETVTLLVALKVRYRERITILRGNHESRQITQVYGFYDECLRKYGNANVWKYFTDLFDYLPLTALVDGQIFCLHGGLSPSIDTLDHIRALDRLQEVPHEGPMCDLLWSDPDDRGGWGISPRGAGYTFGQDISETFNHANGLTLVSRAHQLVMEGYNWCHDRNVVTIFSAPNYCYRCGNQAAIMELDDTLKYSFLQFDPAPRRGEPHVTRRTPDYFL
Target sequence in this assay (P30153 whole entry partner): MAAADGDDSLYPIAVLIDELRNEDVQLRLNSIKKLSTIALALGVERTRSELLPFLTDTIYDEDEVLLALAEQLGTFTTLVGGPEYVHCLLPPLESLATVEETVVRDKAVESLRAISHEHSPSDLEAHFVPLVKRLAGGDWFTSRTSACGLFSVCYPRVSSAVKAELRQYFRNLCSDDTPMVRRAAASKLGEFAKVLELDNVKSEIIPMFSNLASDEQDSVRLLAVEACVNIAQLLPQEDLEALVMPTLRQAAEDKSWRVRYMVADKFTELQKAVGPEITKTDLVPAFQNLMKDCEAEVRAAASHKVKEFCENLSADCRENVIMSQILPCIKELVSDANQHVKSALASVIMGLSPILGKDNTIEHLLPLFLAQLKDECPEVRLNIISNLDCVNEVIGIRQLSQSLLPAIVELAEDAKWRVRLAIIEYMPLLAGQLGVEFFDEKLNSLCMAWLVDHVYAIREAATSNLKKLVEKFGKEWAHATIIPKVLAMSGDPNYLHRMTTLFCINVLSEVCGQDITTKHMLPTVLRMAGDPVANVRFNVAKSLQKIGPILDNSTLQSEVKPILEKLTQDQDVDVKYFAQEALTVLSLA
Target sequence in this assay (P63151 whole entry partner): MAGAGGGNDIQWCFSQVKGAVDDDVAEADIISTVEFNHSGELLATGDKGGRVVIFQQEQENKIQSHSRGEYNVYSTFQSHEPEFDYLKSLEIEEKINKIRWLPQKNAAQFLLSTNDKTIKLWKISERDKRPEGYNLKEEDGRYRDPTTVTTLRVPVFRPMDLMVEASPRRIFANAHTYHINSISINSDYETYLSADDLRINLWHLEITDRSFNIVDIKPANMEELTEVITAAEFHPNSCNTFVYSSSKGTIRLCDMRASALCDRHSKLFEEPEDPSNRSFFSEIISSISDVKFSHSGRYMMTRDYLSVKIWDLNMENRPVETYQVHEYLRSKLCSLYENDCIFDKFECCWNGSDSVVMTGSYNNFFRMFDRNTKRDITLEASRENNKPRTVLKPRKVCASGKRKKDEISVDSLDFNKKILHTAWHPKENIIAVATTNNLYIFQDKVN

Assay [2] concerns the target T1, protein phosphatase-2A1. The note with it: Tung 1997; Janoo 2005; cited from earlier work.
Target sequence in this assay (P67775 whole entry): as the sequence (P67775 whole entry) above

With `C=C1[C@@H](O)[C@@H]2O[C@]3(CC[C@H](/C=C/[C@@H](C)[C@@H]4CC(C)=C[C@@]5(O[C@H](C[C@@](C)(O)C(=O)O)CC[C@H]5O)O4)O3)CC[C@H]2O[C@@H]1[C@@H](O)C[C@H](C)[C@H]1O[C@@]2(CCCCO2)CC[C@H]1C` [okadaic acid, reference compound], at protein phosphatase-2A1 [1], the “effect on protein phosphatase-2A1 from CD4+ T cells” value (from here on “effect on protein phosphatase-2A1”) is “inhibited”.
With “full length HIV-1 Vpr: full length HIV-1 Vpr protein, tested in the literature”, the “activation of protein phosphatase-2A1” value with protein phosphatase-2A1 [2] was “not to activate”.
As for protamine [reference compound], the “effect on protein phosphatase-2A1” value on protein phosphatase-2A1 [1] is reported as “activated”.

B1: inhibitor-2: Protein phosphatase-1 inhibitor-2 purified from rabbit skeletal muscle (protein, UniProt P11845 2-205, looked up)
Protein phosphatase inhibitor …: AASTASHRPIKGILKNKTSSTSSRVASAEQPRGSVDEELSKKSQKWDEMNILATYHPADKDYGLMKIDEPSTPYHSMIGDDDDAYSDTETTEAMTPDTLAKKLAAAEGSEPKYRIREQESSGEEDSDLSPEEREKKRQFEMKRKLHYNEGLNIKLARQLISKDLHDDEEDEEMSETADGESMNTEESNQGSTPSDQRQNKSQSS
Regarding B1, in the assay with protein phosphatase-2A1 [1], the “effect on protein phosphatase-2A1” value is on record as “not inhibited”.
